Where a SMILES comes first, the peptide text is derived from it. Bridges are numbered along the chain shown (N, C = ends).
Tests used:
WT MCF-10A cells = assay: Cell death / viability, LIVE&DEAD assay, WT cells; type: cell-based
Method: Figure 8 Cellular effects of TAT-Pc 13. (A) MCF-10A cells were incubated with 25 µM of TAT-Pc 13 for 3 h and imaged with phase microscopy (upper panel) or with increasing concentrations of TAT-Pc 13 for 2 h and cell viability was evaluated using the LIVE&DEAD™ assay. Live cells fluoresce bright green (530 nm), whereas dead cells fluoresce red-orange (645 nm) (lower panel, scale bare: 100 µm); (B) WT (○-○) or CK2β-depleted (●-●) MCF-10A cells were incubated for 4 h with increasing concentrations of TAT-Pc 13 and cell death was evaluated using the LIVE&DEAD™ assay recording fluorescence at 645 nm. Representative data shown from two independent experiments in duplicate; (C) MCF-10A cells were pre-treated in the absence or presence of 20 µM z-VAD for 5 h and then incubated for 4 h with 25 µM random TAT-Pc 13 or TAT-Pc 13 and cell viability was evaluated as in (A) (scale bare: 100 µm); and (D) intracellular events induced by increasing concentrations of TAT-Pc 13. After 12 h of treatment, 786-O cells were lysed and analyzed by Western blot. TEXT PRINTED IN THE PICTURE: (B) TAT-Pc 13: TAT-Pc 13 (μM): 48; TAT-Pc 13 (μM): 60 DOUBTS OF THE COPYIST ABOUT THIS PICTURE: Panel B: 48 and 60 are printed in red at the x axis, where dashed lines drop from the two curves at about 50 on the Cell death (%) axis. No measure name (e.g. IC50) is printed with them.
Cells were seeded in 96-well microtiter plates at a concentration of 1 × 10^5 cells/mL and were allowed to attach for 24 h at 37 °C in 5% CO2. Cells were then exposed to different concentrations of TAT-Pc 13 for the indicated time. Cell viability was evaluated using the fluorescence-based LIVE&DEAD™ assay (Molecular Probes, Thermo Fisher Scientific, Courtaboeuf, France) according to the manufacturer. Images were taken with an Apotome-equipped Zeiss Axioimager microscope (Zeiss, Oberkochen, German) recording the fluorescence at 530 nm (Live cells) and 645 nm (dead cells) respectively using a FluoStar Optima plate reader (BMG LabTech, Ortenberg, Germany).

[1] = biological target: T1, CK2α/CK2β subunit interaction in MCF-10A cells (Homo sapiens, UniProt P68400); assay: In situ proximity ligation assay of CK2α and CK2β; type: cell-based; settings: 50 µM, 6 h, WT MCF-10A cells; positive control 4.8 ± 1.5 dots/cell
T1 construct: endogenous in cells; host or cells: MCF-10A (WT)
Method: Figure 7 Uptake and cellular effects of TAT-Pc 13. (A) kinetic of TAMRA-TAT-Pc 13 uptake in MCF-10A cells; (B) WT or CK2β-depleted MCF-10A cells were incubated with 50 µM TAT or TAT-Pc 13 for 8 h and the expression of CK2 subunits was evaluated by Western blot; (C) anti-CK2β immunoprecipitates were prepared from WT MCF-10A cells incubated with 50 µM TAT or TAT-Pc 13 for 2 h. Presence of CK2 subunits in the corresponding immunoprecipitates was determined by Western blot; (D) in situ proximity ligation images of MCF-10A cells incubated with 50 µM TAT (a,b,d) or TAT-Pc 13 (c) for 6 h. WT cells were incubated with CK2α antibody alone (a) or CK2α and CK2β antibodies (b,c). […]
PLA is an antibody-based method representing a reliable readout of molecular proximity of two antigens located on two distinct proteins. […] The fluorescent signal from each pair of PLA probes confirms a close proximity and not simply subcellular colocalization and can then be detected and quantified as fluorescent spots in microscopic images of the cells. […] No signal was detected in CK2β-depleted cells (panel d).
In situ PLAs were performed using a Duolink kit (Olink Bioscience, Uppsala, Sweden) according to the manufacturer’s instructions with some modifications. […] Images were observed using a Zeiss Apotome microscope and analyzed using a Zen Pro imaging software (Zeiss, Oberkochen, Germany). […]

[2] = both WT and CK2β-depleted MCF-10A cells, 4 h

T1 sequence (P68400 whole entry): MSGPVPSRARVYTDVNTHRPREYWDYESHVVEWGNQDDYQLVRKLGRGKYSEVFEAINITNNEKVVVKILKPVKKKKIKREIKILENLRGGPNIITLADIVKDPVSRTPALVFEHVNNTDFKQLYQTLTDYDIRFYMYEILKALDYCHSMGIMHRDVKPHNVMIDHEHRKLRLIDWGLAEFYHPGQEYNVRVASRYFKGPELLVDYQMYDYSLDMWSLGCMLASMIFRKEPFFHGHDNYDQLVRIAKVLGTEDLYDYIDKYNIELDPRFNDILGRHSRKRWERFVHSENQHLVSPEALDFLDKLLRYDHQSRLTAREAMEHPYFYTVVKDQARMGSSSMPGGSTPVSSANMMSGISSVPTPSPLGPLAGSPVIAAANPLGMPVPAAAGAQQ

## CC[C@H](C)[C@@H]1NC(=O)[C@H](CCCCN)NC(=O)[C@H](Cc2ccccc2)NC(=O)CNC(=O)[C@H](Cc2ccc(O)cc2)NC(=O)[C@H](CC(C)C)NC(=O)[C@H](CCCNC(=N)N)NC(=O)CNC(=O)CNC(=O)[C@@H](NC(=O)[C@H](CCC(N)=O)NC(=O)[C@@H]2CCCN2C(=O)[C@@H]2CCCN2C(=O)[C@H](CCCNC(=N)N)NC(=O)[C@H](CCCNC(=N)N)NC(=O)[C@H](CCCNC(=N)N)NC(=O)[C@H](CCC(N)=O)NC(=O)[C@H](CCCNC(=N)N)NC(=O)[C@H](CCCNC(=N)N)NC(=O)[C@H](CCCCN)NC(=O)[C@H](CCCCN)NC(=O)[C@H](CCCNC(=N)N)NC(=O)CN)CCCCNC(=O)CNC(=O)CNC(=O)[C@H](Cc2c[nH]cn2)NC1=O [TAT-Pc 13] (H-GRKKRRQRRRPPQKGGRLYGFKIHGG; lactam 14-C; N-terminus assumed)
WT MCF-10A cells; [2]
  concentration at which cell death became massive: 50 to 60 µM
  concentration at which cell death was already detectable: 25 µM
WT MCF-10A cells; three hours after addition, 25 µM (Figure 8A), phase microscopy
  cells rounded up and shrank: more than 50%
[1]
  number of CK2α/CK2β interaction dots: 2.2 ± 1.1 dots/cell

Source: publication PMC5374420, “In Search of Small Molecule Inhibitors Targeting the Flexible CK2 Subunit Interface” (Pharmaceuticals, 2017)
